The record followed here is US8367678B2, “Treatment for spinal muscular atrophy” (Kaohsiung Medical University, priority 2008, dated 2013).

Holding throughout (assay type): cell-based, Human
The subject of data set [1] is SMA lymphoid cells. Description: Cell viability by trypan blue dye exclusion. Particulars: 24 hours. As to the method:
(§1) 2.5×10^5 lymphoid cells/0.5-ml/well in a 12-well dish were exposed to 0, 2, 5, 10, 20 or 50 μM of EIPA. Viability was determined by trypan blue dye exclusion at 24 hours. To determine the cell growth effect of EIPA, 2.5×10^5 lymphoid cells/0.5-ml/well in a 12-well dish were exposed to 0, 2, 5, 10, 20 or 50 μM of EIPA. 0.5-ml of fresh medium (without or with the same EIPA addition) was added at 72 hours and cell counts made at 120 hours. Referring to FIG. 6A, the cell viability remained at above 90% after treatment of 20 μM (or lower) EIPA for 24 hours, but was down to 60% in 50 WA EIPA medium. Additionally, Referring to FIG. 6B, from a dose response curve of 120 hours in vitro cultures, it was estimated that 8 μM of EIPA cause 50% growth inhibition of SMA lymphoid cells.

In data set [2] the test system is SMN protein in SMA lymphoid cell lines. Put plainly: SMN protein level by Western blotting and quantitative densitometry. Particulars: 24 hours. On the procedure: SMA lymphoid cell lines were treated with various concentrations of EIPA for 24 hours and then the level of SMN protein by Western blotting and quantitative densitometry were measured. Protein extract preparation and western blot analysis were performed essentially as described previously (Proc Natl Acad Sci USA 2001; 98:9808-9813). Briefly, proteins were resolved by SDS-PAGE and transferred to a polyvinyl difluoride membrane (Millipore). The membrane was blocked with a 5% skim milk solution and then exposed to the appropriate concentrations of primary antibodies for 1 hour at room temperature. The following primary antibodies were used: mouse monoclonal anti-SMN (BD Biosciences, 1:5,000), mouse monoclonal anti-SR 16H3 (Zymed, 1:500), mouse monoclonal anti-SRp20 (Zymed, 1:500), mouse monoclonal anti-hnRNP A 1 (Acris, 1:1000), mouse monoclonal anti-hnRNP A2/B1 (Acris, 1:1000), mouse monoclonal anti-Sam68 (Santa Cruz, 1:500), mouse monoclonal anti-SF2/ASF (Zymed, 1:2000), mouse monoclonal anti-Akt (Cell Signaling, 1:1000), mouse monoclonal anti-phosphorylated Akt (Cell Signaling, 1:1000), mouse monoclonal anti-α-tubulin (Abeam, 1:5000), and mouse monoclonal anti-β-tubulin (Santa Cruz, 1:2000). After washing with TBST (0.05% Tween 20 in TBS), the membrane was incubated for 1 hour with a secondary antibody at a 1:2500 dilution and then detected by ECL chemiluminescence kit (Amersham). Intensity of the signals was measured using LabWorks software (UVP). Referring to FIG. 2, in the cytoplasm, the SMN protein level of EIPA-treated SMA cell was 1.8-, 1.4-, and 2.6-fold higher than untreated cell lines. In the nucleus, the SMN protein level at 2, 10 and 50 μM EIPA was 2.2-, 2.0-, and 3.3-fold higher than untreated cell lines.

Data set [3] has as its system SRp20 in SMA lymphoid cell lines. Description: Levels of SR and hnRNP proteins by Western blotting and quantitative densitometry. Particulars: 10 μM EIPA (FIG. 3). On the procedure: SMA lymphoid cell lines were treated with various concentrations of EIPA for 24 hours and then the level of SMN protein by Western blotting and quantitative densitometry were measured. Protein extract preparation and western blot analysis were performed essentially as described previously (Proc Natl Acad Sci USA 2001; 98:9808-9813). Briefly, proteins were resolved by SDS-PAGE and transferred to a polyvinyl difluoride membrane (Millipore). The membrane was blocked with a 5% skim milk solution and then exposed to the appropriate concentrations of primary antibodies for 1 hour at room temperature. […] After washing with TBST (0.05% Tween 20 in TBS), the membrane was incubated for 1 hour with a secondary antibody at a 1:2500 dilution and then detected by ECL chemiluminescence kit (Amersham). Intensity of the signals was measured using LabWorks software (UVP). […]
SMA lymphoid cell lines were treated with EIPA and then the change in the levels of several SR and hnRNP proteins by Western blotting and quantitative densitometry was examined. The protein levels in cytoplasmic and nuclear fractions were also measured separately in order to gain information about subcellular distribution. […]
For orientation: In western blotting, separated proteins are transferred to a membrane and probed.

For data set [4], the system named is SMA lymphoid cells. Description: Cell growth assay (cell counts at 120 hours). Particulars: 120 hours in vitro cultures, from dose response curve; read-out: concentration causing 50% growth inhibition of SMA lymphoid cells. On the procedure: as §1
The subject of data set [5] is SMN2 exon 7 splicing in SMA lymphoid cell lines. Description: SMN2 exon 7-containing versus exon 7-lacking transcripts by RT-PCR and quantitative densitometry. On the procedure: Human SMA lymphoid cell lines were treated with several 5-(N-ethyl-N-isopropyl)-amiloride and then the relative levels of SMN2 exon 7-containing versus exon 7-lacking transcripts by RT-PCR and quantitative densitometry (Proc Natl Acad Sci USA 2001; 98:9808-9813) were measured. Human lymphoblast cell lines were established from SMA patients with homozygous SMN1 deletion in our laboratory by Epstein-Barr virus transformation as described in Proc Natl Acad Sci USA 2001; 98:9808-9813. The cells were grown in RPMI-1640 medium supplemented with 2 mM L-glutamine, 10% fetal bovine serum (FBS), 100 units/ml penicillin and 100 μg/ml streptomycin at 37° C. in a humidified atmosphere containing 5% CO2. The SMA lymphoid cell lines derived from 6 SMA patients included 2 type I, 2 type II and 2 type III. The cells were treated with various concentrations of EIPA for 24 hours to determine the dosage effect and exposed to 10 μM of EIPA and harvested at different time intervals (2-24 hours). […] Thus, EIPA promoted SMN2 exon 7 inclusion in a dose-dependent and time-related manner in SMA cells.

Data set [6] has as its system SMA lymphoid cells. Description: Intracellular pH by cytofluorometric SNARF-1 measurement. Particulars: 4 hours, untreated control about 7.40. As to the method:
Thus, the intracellular pH lowering and cytotoxic effects of EIPA on SMA lymphoid cells were determined. The procedures of cytofluorometric measurement were modified from a published method (J Cell Physiol 1998; 177:109-122). Briefly, three million SMA lymphoid cells were treated with 0, 2, or 10 μM of EIPA in 3 ml of growth medium for 4 hours in a 37° C. CO2 incubator, washed in PBS and then incubated in PBS containing 5 μM of carboxy SNARF-1 AM, acetate (Molecular Probes) for 30 minutes at 37° C., also in the absence or presence of 2 or 10 μM EIPA. The SNARF-1 loaded cells collected by 200×g 10 minutes centrifugation were divided into 7 aliquots, 5 for the calibration standard curves and 2 for sample reading. […] The aliquots for sample reading were suspended in hepes-buffered pH 7.1 and pH 7.4 K^+-BSS, without or with EIPA addition, but in the absence of nigericin. After standing in the darkness at room temperature for 20 minutes, the SNARF-1 fluorescence measurement was performed in a cytofluorometer (FACSAria BD Biosciences) by excitation at 488 nm and fluorescent emissions at 580 (FL-2) and 640 nm (FL-3). The cytofluorometric data was analyzed by using FACSDiVa and CellQuest software to gate the major viable cell populations for producing a standard curve of the 640/580 nm fluorescence ratios (y-axis) versus the high-K BSS buffer pHs (x-axis) of nigericin-treated cells. […]

Each structure is given as a SMILES string.

A word on the cell viability: it is a read-out of living cells in per cent, often relative to untreated cells. Read a high cell viability as better survival. `CCN(c1nc(N)c(C(=O)N=C(N)N)nc1Cl)C(C)C` [EIPA, 5-(N-ethyl-N-isopropyl)-amiloride]: the cell viability result with SMA lymphoid cells [1] (20 μM (or lower) EIPA) is given as “above 90%”; in the data set with SMA lymphoid cells [1] (50 μM EIPA medium), 60%. The results for the “SMN protein level in the cytoplasm versus untreated cell lines” value in data set [2] (first listed concentration (2 μM EIPA)), in data set [2] (second listed concentration (10 μM EIPA)) and in data set [2] (third listed concentration (50 μM EIPA)) were 1.8 fold, 1.4 fold and 2.6 fold, respectively. The “SMN protein level in the nucleus versus untreated cell lines” value was determined as 2.2 fold in data set [2] (2 μM EIPA), 2.0 fold in data set [2] (10 μM EIPA) and 3.3 fold in data set [2] (50 μM EIPA). Besides, in data set [3], the “increase of the level of SRp20 in the nucleus” value is reported as “approximately 4 fold”. Further, the IC50 in the data set on SMA lymphoid cells [4] is roughly 8 µM. Besides, the “ratio of SMN2 exon 7-containing to exon 7-lacking transcripts” value in data set [5] (2 μM EIPA, 24 hours, SMA lymphoid cell lines) is listed as “increased significantly”; in data set [5] (10 μM EIPA, 24 hours, SMA lymphoid cell lines), “increased significantly”; in data set [5] (10 μM EIPA, at 4 hours after the treatment) it was “significantly increased”; in data set [5] (50 μM EIPA, 24 hours, SMA lymphoid cell lines) it was “increased significantly”. For the same molecule, the figures for the “intracellular pH (pHi)” value in the data set on SMA lymphoid cells [6] (2 μM EIPA) and with SMA lymphoid cells [6] (10 μM EIPA) were 7.15±0.10 and 7.03±0.15, respectively.
